The structures appear in SMILES notation. Where two headings read alike, the source gives them in different places. Where only a bound is given, the exact number is not on record here.

Our source for the IC50 values is patent US20260308186A1, “STAT DEGRADERS AND USES THEREOF” (Recludix Pharma, Inc., priority 2023, published 2026).

The target of one assay is T1, STAT6 (Homo sapiens, UniProt P42226).
T1 construct: Recombinant STAT6 protein (STAT6(W123-T658))
T1 sequence (P42226 123-658): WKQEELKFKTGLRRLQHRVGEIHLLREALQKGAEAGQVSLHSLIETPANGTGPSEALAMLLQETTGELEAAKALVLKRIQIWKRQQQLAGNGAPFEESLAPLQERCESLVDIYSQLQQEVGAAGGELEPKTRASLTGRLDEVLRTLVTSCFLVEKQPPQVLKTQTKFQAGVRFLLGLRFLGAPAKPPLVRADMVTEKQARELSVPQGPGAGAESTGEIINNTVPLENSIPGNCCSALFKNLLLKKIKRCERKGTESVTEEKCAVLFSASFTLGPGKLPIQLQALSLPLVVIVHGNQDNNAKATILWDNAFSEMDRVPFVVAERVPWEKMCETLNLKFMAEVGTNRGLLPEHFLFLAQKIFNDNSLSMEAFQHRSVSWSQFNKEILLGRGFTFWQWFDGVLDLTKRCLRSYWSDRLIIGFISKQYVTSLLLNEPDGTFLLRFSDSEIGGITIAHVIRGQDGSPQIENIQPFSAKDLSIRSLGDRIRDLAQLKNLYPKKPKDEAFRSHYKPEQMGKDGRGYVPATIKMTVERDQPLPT
The assay can be described thus: STAT6 Fluorescence Polarization (FP) Assay. Format: binding. The procedure: STAT6 Fluorescence Polarization (FP) Assay
An FP assay was developed to determine IC50 values for test substances. Recombinant STAT6 protein (STAT6(W123-T658)) at 250 nM was combined with a fluorescently labeled, phosphotyrosine peptide probe (5-FAM-Ap[…]-NH2) at 2 nM in FP buffer (10 mM HEPES pH 7.4, 50 mM NaCl, 1 mM EDTA, 0.05% Tween 20, 2 mM DTT), 50 μL of STAT6-probe mixture was added to serial diluted compounds in black, 96-well plates (Greiner BioOne 655076) to a final concentration of 1% DMSO. Reaction components were mixed, and FP was measured after 45-minute incubation at room temperature using a Tecan Spark multimode plate reader. FP signal (mP) was plotted against the log concentration of the test substances and IC50 values were calculated by nonlinear regression analysis using GraphPad Prism software. For STAT6 FP assay. A=≤300 nM; B=>300-3000 nM; C=>3-30 μM; and D=>30 μM.

A further assay deals with T2, STAT3 (Homo sapiens, UniProt P40763).
T2 construct: Recombinant STAT3 protein (STAT3(G127-1722))
Briefly: STAT3 Fluorescence Polarization (FP) Assay. The format is binding. How it is done:
STAT3 Fluorescence Polarization (FP) Assay
An FP assay was developed to determine IC50 values for test substances. Recombinant STAT3 protein (STAT3(G127-1722)) at 25 nM was combined with a fluorescently labeled, phosphotyrosine peptide probe (5-FAM-GpYLPQTV-NH2) at 2 nM in FP buffer (10 mM HEPES pH 7.4, 50 mM NaCl, 1 mM EDTA, 0.05% Tween 20.2 mM DTT). 50 μL of STAT3-probe mixture was added to serial diluted compounds in black, 96-well plates (Greiner BioOne 655076) to a final concentration of 1% DMSO. Reaction components were mixed, and FP was measured after 45-minute incubation at room temperature using a Tecan Spark multimode plate reader. FP signal (mP) was plotted against the log concentration of the test substances and IC50 values were calculated by nonlinear regression analysis using GraphPad Prism software. For STAT3 FP assay. A=≤100 nM; B=>100-1000 nM; C=>1-10 μM; and D=>10 μM.

In a further assay the target is T3, pSTAT6 (Homo sapiens, UniProt P42226).
T3 construct: pY641-STAT6 MSD read-out
T3 sequence (P42226 1-847): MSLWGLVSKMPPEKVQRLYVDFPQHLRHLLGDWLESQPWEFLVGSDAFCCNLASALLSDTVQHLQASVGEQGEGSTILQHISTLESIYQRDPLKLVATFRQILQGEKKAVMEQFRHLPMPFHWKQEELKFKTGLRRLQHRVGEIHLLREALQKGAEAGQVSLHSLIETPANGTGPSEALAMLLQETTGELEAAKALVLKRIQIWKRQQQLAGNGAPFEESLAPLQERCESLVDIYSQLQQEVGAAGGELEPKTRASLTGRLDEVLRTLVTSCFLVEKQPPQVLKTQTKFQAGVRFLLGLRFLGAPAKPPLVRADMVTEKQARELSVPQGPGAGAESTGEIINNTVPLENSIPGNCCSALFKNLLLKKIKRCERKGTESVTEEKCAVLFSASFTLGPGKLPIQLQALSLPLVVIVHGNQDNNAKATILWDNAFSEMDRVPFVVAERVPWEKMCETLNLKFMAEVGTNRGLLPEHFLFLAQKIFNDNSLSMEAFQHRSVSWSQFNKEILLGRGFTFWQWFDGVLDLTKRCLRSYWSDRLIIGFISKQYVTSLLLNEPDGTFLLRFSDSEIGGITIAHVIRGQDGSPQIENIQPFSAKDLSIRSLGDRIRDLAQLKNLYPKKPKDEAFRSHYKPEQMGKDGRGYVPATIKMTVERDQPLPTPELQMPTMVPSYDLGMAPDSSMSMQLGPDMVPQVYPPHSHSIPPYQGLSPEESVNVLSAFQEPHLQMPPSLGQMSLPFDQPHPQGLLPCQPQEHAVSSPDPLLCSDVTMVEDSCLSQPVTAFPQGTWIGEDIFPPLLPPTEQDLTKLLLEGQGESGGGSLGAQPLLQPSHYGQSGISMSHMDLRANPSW
The assay can be described thus: MSD-pSTAT-PBMC Assay, pSTAT6 (IL-4 stimulated PBMC). The format is cell-based. An excerpt:
Cryopreserved Peripheral Blood Mononuclear Cells (PBMC) are from AllCells. Recombinant Human IL-4 and IL-6 are from Peprotech. Mouse monoclonal anti-STAT3 antibody, rabbit monoclonal anti-pY705-STAT3 antibody, rabbit monoclonal Anti-pY641-STAT6 antibody, and lysis buffer are from Cell Signaling Technology (CST). Mouse monoclonal anti-STAT6 antibody is from BioLegend. Assay plates, blocker, and anti-rabbit secondary antibody are from Meso Scale Discovery (MSD).
Cryopreserved PBMCs were thawed out and allowed to recover overnight in IMDM+10% heat-inactivated FBS prior to plating 50,000 (STAT3) or 25,000 (STAT6) cells per well in 96-well U-bottom tissue culture plates. Cells were treated with compound for 3 hrs. then stimulated with 10 ng/mL IL-6 (STAT3) or 1 ng/mL IL-4 (STAT6) for 10 min. Cells were then spun down and washed with ice-cold PBS prior to lysing the cell pellet with 1× lysis buffer (CST) with 1×HALT protease and phosphatase inhibitor cocktail (Thermo). Lysates were transferred to and incubated overnight at 4° C. with shaking in QuickPlex 96-well high bind assay plates (MSD) pre-coated overnight with 30 μL per well of 0.6 μg/mL mouse monoclonal anti-STAT3 antibody (STAT3) or 2 μg/mL mouse monoclonal anti-STAT6 antibody (STAT6) in 1×PBS, and pre-blocked for 1 hour with 3% Blocker-A (MSD). Captured protein in the assay plates were then washed and probed with 25 μL per well of 0.25 μg/ml rabbit monoclonal anti-pY705-STAT3 antibody (STAT3) or 0.18 μg/ml rabbit monoclonal Anti-pY641-STAT6 antibody (STAT6) in 1% Blocker-A for 1 hour at room temperature with shaking, then washed and probed with 25 ul per well of 1 ug/ml Sulfo-TAG Labeled Goat Anti-Rabbit Antibody (MSD) in 1% Blocker-A for 1 hour at room temperature with shaking. Assay plates were then washed and 150 μL of 1× Read Buffer-T (MSD) was added to each well prior to reading on an SQ120 MSD Plate Reader. Assay signal from each sample was subtracted by the signal from unstimulated control wells and normalized to DMSO control wells. IC50 values were calculated using Graph Pad Prism Dose-Response Nonlinear Regression with variable slope. For both pSTAT3 and pSTAT6 A=≤100 nM; B=>100-1000 nM; C=>1000-3000 nM; and D=>3 μM.

[1] abbreviates: read-out: pSTAT6 IC50, compound 3 hrs, then 1 ng/mL IL-4 for 10 min, pY641-STAT6.
The mark [2] stands for this setting: recombinant STAT6(W123-T658) 250 nM, probe 5-FAM-Ap[…]-NH2 2 nM, 45 min, room temperature, read-out: STAT6 FP IC50.
Setting [3] is: recombinant STAT3 25 nM, probe 5-FAM-GpYLPQTV-NH2 2 nM, 45 min, room temperature, read-out: STAT3 FP IC50.
Setting [4] is: compound 3 hrs, then 1 ng/mL IL-4 for 10 min, pY641-STAT6, read-out: pSTAT6 IC50.

T2 sequence (P40763 127-722 limits assumed): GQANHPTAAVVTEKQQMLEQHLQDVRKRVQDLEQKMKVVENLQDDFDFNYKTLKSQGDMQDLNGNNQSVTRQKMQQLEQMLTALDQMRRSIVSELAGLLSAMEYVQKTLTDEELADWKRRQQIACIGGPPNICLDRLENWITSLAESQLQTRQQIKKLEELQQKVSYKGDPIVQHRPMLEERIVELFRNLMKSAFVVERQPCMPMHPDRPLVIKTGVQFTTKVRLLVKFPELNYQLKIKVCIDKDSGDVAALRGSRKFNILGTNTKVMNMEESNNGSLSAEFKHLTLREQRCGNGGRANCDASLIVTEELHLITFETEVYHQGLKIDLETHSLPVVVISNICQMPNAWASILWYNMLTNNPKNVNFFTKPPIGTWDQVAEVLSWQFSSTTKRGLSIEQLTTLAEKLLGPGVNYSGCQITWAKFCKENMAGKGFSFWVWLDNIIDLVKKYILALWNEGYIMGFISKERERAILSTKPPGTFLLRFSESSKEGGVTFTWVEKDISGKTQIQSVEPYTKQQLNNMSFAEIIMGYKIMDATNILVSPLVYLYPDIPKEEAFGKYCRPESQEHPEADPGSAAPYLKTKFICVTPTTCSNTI

Consider `Cc1ccc2[nH]nc(C(=O)N3CC[C@H]4CC[C@@H](C(=O)N(C)CCCCCCC#Cc5cccc6c5CN(C5CCC(=O)NC5=O)C6=O)N4C(=O)[C@@H](NC(=O)c4ccc5ccc(C(F)(F)P(=O)(O)O)cc5c4)C3)c2c1` (stereo partly drawn) [Compound 11, ((7-(((5S,8S,10aR)-8-((8-(2-(2,6-dioxopiperidin-3-yl)-1-oxoisoindolin-4-yl)oct-7-yn-1-yl)(methyl)carbamoyl)-3-(5-methyl-1H-indazole-3-carbonyl)-6-oxodecahydropyrrolo[1,2-a][1,5]diazocin-5-yl)carbamoyl)naphthalen-2-yl)difluoromethyl)phosphonic acid], for which the figures for the IC50 against STAT6, on STAT3 and on pSTAT6 (setting [1]) were less than 300 nM, 1000 to 10000 nM and 100 to 1000 nM, respectively.
The corresponding values for `Cc1ccc2[nH]nc(C(=O)N3CC[C@H]4CC[C@@H](C(=O)N(C)CCCCCCC#Cc5cccc6c5CN(C5CCC(=O)NC5=O)C6=O)N4C(=O)[C@@H](NC(=O)c4ccc5ccc(C(F)P(=O)(O)O)cc5c4)C3)c2c1` (stereo partly drawn) [Compound 14, ((7-(((5S,8S,10aR)-8-((8-(2-(2,6-dioxopiperidin-3-yl)-1-oxoisoindolin-4-yl)oct-7-yn-1-yl)(methyl)carbamoyl)-3-(5-methyl-1H-indazole-3-carbonyl)-6-oxodecahydropyrrolo[1,2-a][1,5]diazocin-5-yl)carbamoyl)naphthalen-2-yl)fluoromethyl)phosphonic acid] are 300 to 3000 nM, more than 10000 nM and more than 3000 nM.
On to `Cc1ccc2[nH]nc(C(=O)N3CC[C@H]4CC[C@@H](C(=O)N(C)CCCCCCC#Cc5cccc6c5CN(C5CCC(=O)NC5=O)C6=O)N4C(=O)[C@@H](NC(=O)c4ccc5ccc(CP(=O)(O)O)cc5c4)C3)c2c1` (stereo partly drawn) [Compound 15, ((7-(((5S,8S,10aR)-8-((8-(2-(2,6-dioxopiperidin-3-yl)-1-oxoisoindolin-4-yl)oct-7-yn-1-yl)(methyl)carbamoyl)-3-(5-methyl-1H-indazole-3-carbonyl)-6-oxodecahydropyrrolo[1,2-a][1,5]diazocin-5-yl)carbamoyl)naphthalen-2-yl)methyl)phosphonic acid], for which the IC50 on STAT6 is 300 to 3000 nM; against STAT3, more than 10000 nM; at pSTAT6 (setting [1]) it was more than 3000 nM.
As to `Cc1ccc2onc(C(=O)N3CC[C@H]4CC[C@@H](C(=O)N(C)CCCCCCC#Cc5cccc6c5CN(C5CCC(=O)NC5=O)C6=O)N4C(=O)[C@@H](NC(=O)c4ccc5ccc(C(F)(F)P(=O)(O)O)cc5c4)C3)c2c1` (stereo partly drawn) [Compound 22, ((7-(((5S,8S,10aR)-8-((8-(2-(2,6-dioxopiperidin-3-yl)-1-oxoisoindolin-4-yl)oct-7-yn-1-yl)(methyl)carbamoyl)-3-(5-methylbenzo[d]isoxazole-3-carbonyl)-6-oxodecahydropyrrolo[1,2-a][1,5]diazocin-5-yl)carbamoyl)naphthalen-2-yl)difluoromethyl)phosphonic acid], the IC50 is less than 300 nM on STAT6 (setting [2]), more than 10000 nM on STAT3 (setting [3]) and 100 to 1000 nM at pSTAT6 (setting [4]).
Turning to `Cc1ccc2onc(C(=O)N3CC[C@H]4CC[C@@H](C(=O)N(C)CC(=O)N[C@H](C(=O)N5C[C@H](O)C[C@H]5C(=O)N[C@@H](C)c5ccc(-c6scnc6C)cc5)C(C)(C)C)N4C(=O)[C@@H](NC(=O)c4ccc5ccc(C(F)(F)P(=O)(O)O)cc5c4)C3)c2c1` [Compound 27, (difluoro(7-(((5S,8S,10aR)-8-((2-(((S)-1-((2S,4R)-4-hydroxy-2-(((S)-1-(4-(4-methylthiazol-5-yl)phenyl)ethyl)carbamoyl)pyrrolidin-1-yl)-3,3-dimethyl-1-oxobutan-2-yl)amino)-2-oxoethyl)(methyl)carbamoyl)-3-(5-methylbenzo[d]isoxazole-3-carbonyl)-6-oxodecahydropyrrolo[1,2-a][1,5]diazocin-5-yl)carbamoyl)naphthalen-2-yl)methyl)phosphonic acid], the results for the IC50 on STAT6 (setting [2]), on STAT3 (setting [3]) and on pSTAT6 (setting [4]) were less than 300 nM, 1000 to 10000 nM and more than 3000 nM, respectively.
